Holding throughout (format): functional, cell-based
One assay relates to HL-60. Nature of the assay: Cytotoxicity against human HL60 cells after 48 hrs by MTT assay. The note with it: HL-60, 48 h. For orientation: Formazan colour is commonly taken as a measure of viable cells.
The subject of a further assay is RPMI-8226. In words: Cytotoxicity against human RPMI8226 cells after 48 hrs by MTT assay. The settings on record: RPMI-8226, 48 h.
A further assay relates to NCI-H226. In words: Cytotoxicity against human NCI-H226 cells after 48 hrs by MTT assay. The settings on record: NCI-H226, 48 h.
The next assay deals with HCT-116. Nature of the assay: Cytotoxicity against human HCT116 cells after 48 hrs by MTT assay. The settings on record: HCT-116, 48 h.
The subject of the next assay is MCF7. In words: Cytotoxicity against human MCF7 cells after 48 hrs by MTT assay. The note with it: MCF7, 48 h.

With `CC[C@H]1C[C@H]2C[C@@]3(C(=O)OC)c4c(c5cc(OC)ccc5n4CC4=C[C@@]5(CCO)CC(C(=O)OC)=C6Nc7ccccc7[C@@]67CCN(C4)[C@@H]57)CCN([C@@H]2O)[C@@H]13` [BISCARPAMONTAMINE A], the half-maximal inhibitory concentration (IC50) (commonly the concentration that gives 50% inhibition) with HL-60 was found to be 12.2 µM; in the assay with RPMI-8226, 27.9 µM; with NCI-H226, 16.9 µM; in the assay with HCT-116, 14 µM; with MCF7, 25.3 µM.
In the case of `CC[C@]1(O)C[C@@H]2CN(CCc3c([nH]c4ccccc34)[C@@](C(=O)OC)(c3cc4c(cc3OC)N(C)[C@H]3[C@@](O)(C(=O)OC)[C@H](OC(C)=O)[C@]5(CC)C=CCN6CC[C@]43[C@@H]65)C2)C1` [VINBLASTINE], the IC50 in the assay on HL-60 stood at 0.0016 µM. In other words, the single-digit nanomolar range.
On the same count and under the same terms, next, `CC[C@]1(O)C[C@H]2CN(CCc3c([nH]c4ccccc34)[C@@](C(=O)OC)(c3cc4c(cc3OC)N(C=O)[C@H]3[C@@](O)(C(=O)OC)[C@H](OC(C)=O)[C@]5(CC)C=CCN6CC[C@]43[C@@H]65)C2)C1` [VINCRISTINE]: 0.00087 µM.

Source of the values: ChEMBL document CHEMBL1154247, “Biscarpamontamines A and B, an aspidosperma-iboga bisindole alkaloid and an aspidosperma-aspidosperma bisindole alkaloid, from Tabernaemontana sphaerocarpa” (J Nat Prod, 2009).
